Experimental data: US12697316B2, “Combination therapy with acetyl-leucine and miglustat” (INTRABIO LTD., priority 2019, dated 2026)

Tests used:
Type in all cases: in vivo, mouse
[1] = system: Npc1^−/− mice; experiment: CatWalk automated gait analysis in Npc1−/− mice; conditions: for ataxia (lateral displacement from a straight trajectory): 9-week-old Npc1−/− mice treated from 8 weeks of age (1 week), 0.1 g/kg/day in diet; for ataxia (lateral displacement from a straight trajectory) / duty cycle of hind paws / hind paw stand mean: vs untreated Npc1−/−; for magnitude of ataxia: Npc1−/− mice treated from weaning (3 weeks), assessed at 9 weeks (6 weeks of treatment)
Protocol: BALBc/NPC ^h and Sandhoff mice were bred as heterozygotes to generate affected mice (Npc1^−/−, Hexb^−/−) and controls (Npc^+/+, Hexb^+/+). The mice were housed under non-sterile conditions, with food and water available ad libitum. All experiments were conducted using protocols approved by the UK Home Office Animal Scientific Procedures Act, 1986.
(§1) ADLL and enantiomers (ADLL: Molekula #73891210, ALL: Sigma Aldrich #441511, ADL: Sigma #A0876) were administered as dry admix in powdered mouse diet (PicoLab Rodent Diet 20/5053, LabDiet) at a dose of 0.1 g/kg/day for in vivo studies. Treatment groups for in vivo study consisted of at least 5 mice per group. In vitro studies were conducted with each compound dissolved in PBS to generate a 50 mM stock solution and diluted to a 1 mM working concentration in media (DMEM High Glucose-Gibco #10566016).
Miglustat (Monsanto/Oxford GlycoSciences) was administered as a dry solid mixed with powdered chow (600 mg/kg/day) (see above) alone or in combination with ADLL.
The weight and activity of each mouse was recorded weekly until reaching the humane endpoint (defined as a loss of 1 g body weight within 24 h). Gait analysis was performed using CatWalk 10.5 system (Noldus) according to the manufacturer's instructions and five runs were recorded per animal at each time point. The camera was set to 40 cm below the walkway, the walkway was approximately 4 cm wide, and detection settings set to camera gain 14.05 and green intensity 0.12. Motor function was measured using an accelerating NG Rota Rod for mice (Ugo Basile) starting from 1 rpm to 10 rpm, accelerating every 30 seconds by one rpm. Bar crossing experiments on Sandhoff animals were conducted to measure motor strength and coordination. The apparatus used was modified from published studies. Briefly, a metal bar (1.2 mm width and 26 cm in length) was suspended horizontally between two wooden supports 30 cm high over a cushioned surface and animals were allowed to grasp the center of the bar with forepaws only, the tail was released, and the clock was started. Latency to cross or fall from the bar was scored, with 120 sec, maximum, to termination of each trial. A score was given to each animal between +120 and −120. If crossing time was greater than 0, then score=120−CT; if falling time was greater than 0, the score=FT−120.

[2] = system: Npc1^−/− mice; experiment: Accelerating Rotarod motor function in Npc1−/− mice; conditions: Npc1−/− mice treated from 3 weeks, assessed at 8 weeks, vs untreated Npc1−/−
Protocol: The weight and activity of each mouse was recorded weekly until reaching the humane endpoint (defined as a loss of 1 g body weight within 24 h). […] Motor function was measured using an accelerating NG Rota Rod for mice (Ugo Basile) starting from 1 rpm to 10 rpm, accelerating every 30 seconds by one rpm.

[3] = system: Npc1^−/− mice; experiment: Lipid storage (GSLs, sphingoid bases) in forebrain and cerebellum of Npc1−/− mice; parameters: concentration or dose not given beside the values; conditions: Npc1−/− mice treated from 3 weeks, 59 days of age
Protocol: as §1
(§2) Biochemical and immunohistochemical analyses. Mice were saline perfused under terminal anaesthesia. Tissues for biochemical analysis were snap-frozen on ice-cold isopentane. For immunofluorescent staining, tissues were perfused with 4% PFA followed by PBS and kept in 4% PFA for 24h and stored in PBS containing 20% sucrose longer term. Brains were cut parasagitally (20 micron sections) and stored in 30% ethylene glycol, 30% glycerol 0.1 M sodium phosphate buffer (pH 7.4) at −20° C. Biochemical analysis was performed on water-homogenised tissues (50 mg/ml) and protein content was determined using a BCA protein assay (Thermo Fisher #23227) according to the manufacturer's instructions.
(§3) Sphingoid Base Measurements: Sphingoid bases (sphingosine and sphinganine) were extracted from 100 uL tissue homogenates in 500 uL of chloroform:methanol (1:2v/v) followed by sonication for 10 minutes at room temperature. Subsequently, 1 M 500-uL sodium chloride, 500 uL chloroform, and 3 M 100 uL sodium hydroxide were added to the samples, and vortexed every five minutes for 15 minutes at room temperature. Homogenates were centrifuged (13,000 g for 10 minutes) and the lower organic phase retained. Sphingoid bases were purified from the samples by pre-equilibrating SPA-NH2 columns with 2×1 mL chloroform followed by sample elution with 3×300 ul acetone. The samples were dried under nitrogen. Lipids were resuspended in 50 uL pre-warmed ethanol (37° C.) and 50 uL OPA labelling solution (1 mg OPA/20 uL Ethanol/1 uL 2-mercaptoethanol; dilution 1:2000 in 3% boric acid pH 10.5) was added. Samples were kept at room temperature in the dark for 20 minutes and vortexed every 10 minutes. Samples were buffered with 100 uL methanol: 5 mM Tris pH 7 (9:1) and centrifuged at 5,000 g for 2 minutes. Supernatants (150 uL) were loaded onto a reverse phase HPLC. Chromatography was carried out using a mobile phase of 85% acetonitrile/15% H2O at a flow rate of 1.0 ml/min. The orthophthaldehyde-labelled derivatives were monitored at an excitation wavelength of 340 nm and an emission wavelength of 450 nm. Quantification of trace peak area was carried out using EZChrom Elite software v3.2.1.
(§4) Glycosphingolipid measurements: Glycosphingolipids were extracted and measured by NP-HPLC according to published methods. Tissue homogenates in chloroform/methanol (C:M) (1:2 v/v) overnight at 4° C. The mixture was centrifuged (3000 rpm/10 min) and 1 mL chloroform and 1 mL PBS were added to the supernatant and centrifuged (3000 rpm/10 min). The lower phase was dried under N2, resuspended in 50 uL C:M 1:3 v/v and combined with the upper phase. Subsequently, GSLs were recovered using C18 Isolute columns (100 mg) (Biotage) pre-equilibrated with 4×1 mL MeOH and 2×1 mL H2O. Samples were washed 3×1 mL H2O and eluted with 1 mL C:M 98:2, 2×1 mL C:M 1:3, 1 mL MeOH. The column eluate was dried under N2, resuspended in 100 uL C:M 2:1, dried again under N2 and resuspended in ceramide glycanase (CGase) buffer (50 mM sodium acetate pH 5.5, 1 mg/mL sodium taurodeoxycholate). 50 mU CGase was added, and samples incubated at 37° C. overnight. Released oligosaccharides were anthranilic acid (2-AA) labelled and purified by mixing with 1 mL Acetonitrile: H2O 97:3 and added to Discovery DPA-6S columns (SUPELCO, # 52625-U) pre-equilibrated with 1 mL acetonitrile, 2×1 mL H2O, and 2×1 mL acetonitrile. Columns were washed with 2×1 mL Acetonitrile: H2O 95:5 v/v, and eluted in 2×0.75 mL H2O. […]

[4] = system: Npc1^−/− mice; experiment: Lipid storage (GSLs, sphingoid bases, cholesterol) in liver of Npc1−/− mice; parameters: reduction of liver GSL levels (total) / reduction of GM2Gc in liver / reduction of sphingosine in liver / reduction of sphinganine in liver / reduction of GM3Gc in liver: concentration or dose not given beside the values; conditions: 59 days of age
Protocol: as §1, §2, §3, §4

[5] = Npc1−/− mice treated from 3 weeks, assessed at 8 weeks

SMILES | ataxia (lateral displacement from a straight trajectory) [1] | duty cycle of hind paws [1, 5] | hind paw stand mean [1, 5] | magnitude of ataxia [1] | Rotarod performance [2] | reduction of GA2 in cerebellum [3] [%] | reduction of sphinganine levels in forebrain [3] [%] | decrease of total free cholesterol in liver [4] [%] | reduction of sphinganine in liver [4] [%] | reduction of sphingosine in liver [4] [%] | reduction of GM2Gc in liver ([4]; vs untreated Npc1−/−) [%] | reduction of liver GSL levels (total) ([4]; vs untreated Npc1−/−) [%] | motor function assessed using Catwalk [1, 5] | reduction of sphinganine in cerebellum [3] [%] | reduction of GA1 in cerebellum [3] [%] | reduction of GM1a in forebrain [3] [%] | reduction of GM2 in forebrain [3] [%] | reduction of GM3Gc in liver ([4]; vs untreated Npc1−/−) [%]
CC(=O)NC(CC(C)C)C(=O)O (racemic) [ADLL, N-acetyl-DL-leucine] | significantly reduced ataxia | significantly reduced | significantly reduced | significantly reduced | significant improvement | 21.3 | 13.5 | 18.2 | 32.5 | 29.5 | 26.7 | 26.9 | – | – | – | – | – | –
CC(=O)N[C@H](CC(C)C)C(=O)O [ADL, N-acetyl-D-leucine] | significantly reduced ataxia | – | – | significantly reduced | no significant benefit | – | 18.2 | 16.2 | 38.5 | 33.6 | 29 | 26.9 | no significant benefit | 42.3 | – | – | – | –
CC(=O)N[C@@H](CC(C)C)C(=O)O [ALL, N-acetyl-L-leucine] | significantly reduced ataxia | significantly reduced | significantly reduced | significantly reduced | significant improvement | 23.8 | – | 23.4 | 37.4 | 33.2 | 45 | 45.6 | – | – | 23.5 | 20.1 | 19.6 | 54.8
